In patent US9861094B2, “Composition and method for tissue preservation and embalming” (OGF, priority 2008, dated 2018):

Assays:
[1] = test system: bacteria in the body fluid; experiment: bacteriological analyses of body fluid after embalming
Source text: The results obtained according to the bronopol concentration were as follows:

[2] = test system: bodies of the deceased; experiment: embalming tests for presentation of the deceased (arterial and cavity injection); set-up: species or system human; details: 0.6% bronopol; bodies with no particular abnormality
Procedure: For arterial injection, the following compositions were prepared and tested (these compositions are prepared for 1 liter of concentrated solution to which 5 liters of water are added):
This operation uses the method generally used for embalming procedures, namely injection and drainage, said drainage being generally performed in the region of the right heart.
Injection is carried out through the femoral, carotid or axillary arteries.
The amount of fluid injected is approximately 6 liters, but this amount may vary depending on the state of the deceased and the diagnosis made by the embalmer, for example the need for more drainage.
For cavity injection, the following compositions were prepared and tested (these compositions are prepared for 500 ml and used as they are):
This operation uses the method widely practised in embalming procedures, that is, gas and fluid tapping in the region of the thoracic and abdominal cavities, and injection of the composition according to the invention into each of the cavities so that said composition is diffused optimally throughout the cavities concerned.
Still using an identical base of glycerine, ethanol or methanol, tests were carried out using the compositions described in the examples above (compositions (1), (2), (3) and (3a) for arterial injection and compositions (4) and (5) for cavity injection).

[3] = test system: bodies for dissection; experiment: embalming of bodies for dissection (injection alone, no tapping); set-up: species or system human; details: bronopol 1% by weight, 4 liters injected; dissections 14 and 16 days after death
Procedure: In this type of procedure, no liquid tapping or cavity injection is carried out.
1. Tests were also carried out within the faculty of medicine in the context of the preservation of bodies for dissection.
The results observed are very interesting, knowing that these tests were carried out by injection alone with no tapping.
To obtain optimum preservation of the body, a bronopol concentration of 1% by weight was used for a total injected quantity of 4 liters.
For example, the above-mentioned composition (2) was used on a subject of average build (a person who had been dead for eight days).
Before the test was performed, very marked lividities, large green abdominal marks and sunken eyes (the body had been frozen) were observed.
The product was then injected through the carotid artery in one pass (one times 3.6 liters of water and 400 ml of the above-mentioned composition (2)), for better product dilution (injection total=4 liters) (bronopol concentration=1%).
The subject was moved alternately between the cold storage room (7° C.) and the autopsy table (25° C.).

O=[N+]([O-])C(Br)(CO)CO [Bronopol, 2-bromo-2-nitropropane-1,3-diol]
Presence of bacteria in the body fluid ([1]; Bronopol concentration 0.90%): 1 out of 2 cases with bacteria
Presence of bacteria in the body fluid ([1]; Bronopol concentration ≦0.80%): 7 out of 8 cases with bacteria
Presence of bacteria in the body fluid ([1]; Bronopol concentration ≧1.2%): 1 out of 3 cases with bacteria
overall result of embalming tests [2]: satisfactory results
odour [3]: lack of odour
state of preservation of the body and tissue suppleness [3]: very good results
